The source of these data is PMC5678437, “A new antagonist for CCR4 attenuates allergic lung inflammation in a mouse model of asthma” (Scientific Reports, 2017).

Assay [1] has as its target T1, CXCR1 (Homo sapiens, UniProt P25024).
T1 construct: expressed in transfected cells; host or cells: HEK293; plasmid gift of Dr. Philip M. Murphy (NIAID, NIH)
T1 sequence (P25024 1-350): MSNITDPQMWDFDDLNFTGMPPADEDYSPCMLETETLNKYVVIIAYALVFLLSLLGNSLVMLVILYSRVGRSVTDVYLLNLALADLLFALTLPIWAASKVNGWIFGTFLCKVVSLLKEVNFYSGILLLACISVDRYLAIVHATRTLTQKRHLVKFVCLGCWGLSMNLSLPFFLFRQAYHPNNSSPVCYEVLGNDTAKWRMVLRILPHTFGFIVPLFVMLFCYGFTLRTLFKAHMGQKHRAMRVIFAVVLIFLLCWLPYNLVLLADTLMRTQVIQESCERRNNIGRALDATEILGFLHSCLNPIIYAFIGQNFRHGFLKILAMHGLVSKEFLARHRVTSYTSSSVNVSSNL
Description: Chemotaxis assay for receptor specificity, HEK293-CXCR1. It is filed as cell-based. As to conditions: compound as chemoattractant in lower chamber, 0.2, 1, 5, 25 μM. The procedure: (§1) HEK293 cells were transfected with different chemokine receptors. Compound 8a with DMSO was diluted to 0.2 mM, 1 mM, 5 mM and 25 mM, and then we used RPMI 1640 medium containing 0.1% BSA for dilution. The final concentration is: 0.2 μM, 1 μM, 5 μM and 25 μM. DMSO was also diluted 1000-fold with 0.1% BSA RPMI 1640 medium. Chemokines was also diluted to an appropriate concentration. The dilutions of Compound 8a, 1‰ DMSO, the corresponding chemokines of different receptors and 0.1% BSA RPMI 1640 medium were placed in the lower chambers (27.5 μl/well). The transfected HEK293 cells were resuspended in the same medium at a density of 1 × 10^6 cells/ml and added to the upper chambers (55 μl/well).

Assay [2] concerns the target T1, CXCR1. Description: Chemotaxis inhibition assay for receptor specificity, HEK293-CXCR1. The conditions noted are these: 0.2, 1, 5, 25 μM, 30 min pretreatment. The assay is classed as cell-based. As to the method:
(§2) HEK293 cells were transfected with different chemokine receptors. The corresponding chemokines of different receptors were placed in the lower chambers. The transfected cells were pretreated with different concentrations of Compound 8a or 1‰ DMSO for 30 min at a density of 1 × 10^6 cells/ml and added to the upper chambers, the final concentration of the compound is: 0.2 μM, 1 μM, 5 μM, and 25 μM, respectively.

For assay [3], the system named is IL-4. Description: IL-4 in lung homogenate by ELISA in OVA-induced asthmatic mice. It is filed as in vivo, BALB/c mice. The conditions noted are these: 5 mg inhaled aerosol; after OVA challenge. As to the method:
Male BALB/c 6 week old mice were purchased from the Experimental Animal Center of Zhejiang University. All mice were raised in a specific pathogen-free animal facility. All animal experiments were carried out according to the guidelines for the care and use of laboratory animals and were approved by the ethics committee of Zhejiang University and Peking University, China.
Mice were sensitized and challenged with chicken egg OVA (sigma-Aldrich, St Louis, MO, USA) as described in details previously. Briefly, after sensitized by intraperitoneal injection of 100 μl (80 μg) OVA in 100 μl alum (Pierce, Rockford, IL, USA) on days 0 and 14, mice were exposure to 1% OVA aerosols for 40 min on days 24–26. Control mice were injected intraperitoneally with saline and exposed to saline aerosols.
Compound 8a was dissolved in saline with DMSO (0.5%). Half an hour before each OVA challenge, the groups of mice treated with various doses of compound 8a (0.2, 1, 5 mg) inhaled aerosolized compound 8a for 45 min on days 24–26. […]
Twenty-four hours after the last challenge, lungs were removed from control or asthmatic mice, and they were cut into pieces and homogenized in 500 μl PBS, centrifuged (2000 rpm, 10 min) and the supernatant collected. The concentration of IL-4 in lungs were determined by ELISA kit (Sensitivity: 2 pg/ml, R&D Systems, Minneap-olis, MN, USA) following the manufacturer’s protocol.
In general terms: In an ELISA, binding on a coated surface is turned into a signal by an enzyme label.

For assay [4], the target named is T2, CCR2B (Homo sapiens, UniProt P41597).
T2 construct: expressed in transfected cells; host or cells: HEK293, pcDB-CCR2B plasmid made in the authors' laboratory
T2 sequence (P41597 1-360 isoform P41597-2): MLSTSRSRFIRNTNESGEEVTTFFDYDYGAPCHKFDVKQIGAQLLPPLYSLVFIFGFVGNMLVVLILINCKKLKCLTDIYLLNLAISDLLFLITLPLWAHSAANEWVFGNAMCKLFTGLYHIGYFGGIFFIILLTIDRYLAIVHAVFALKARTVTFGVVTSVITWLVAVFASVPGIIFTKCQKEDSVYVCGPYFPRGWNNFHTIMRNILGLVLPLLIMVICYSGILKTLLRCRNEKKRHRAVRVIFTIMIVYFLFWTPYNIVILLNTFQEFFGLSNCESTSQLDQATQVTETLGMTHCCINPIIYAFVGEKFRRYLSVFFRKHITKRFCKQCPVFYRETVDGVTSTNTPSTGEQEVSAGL
Description: Chemotaxis assay for receptor specificity, HEK293-CCR2B. The assay is classed as cell-based. As to conditions: compound as chemoattractant in lower chamber, 0.2, 1, 5, 25 μM. The procedure: as §1

Assay [5] deals with T3, CCR7 (Homo sapiens, UniProt P32248).
T3 construct: expressed in transfected cells; host or cells: HEK293, pcDB-CCR7 plasmid made in the authors' laboratory
T3 sequence (P32248 25-378): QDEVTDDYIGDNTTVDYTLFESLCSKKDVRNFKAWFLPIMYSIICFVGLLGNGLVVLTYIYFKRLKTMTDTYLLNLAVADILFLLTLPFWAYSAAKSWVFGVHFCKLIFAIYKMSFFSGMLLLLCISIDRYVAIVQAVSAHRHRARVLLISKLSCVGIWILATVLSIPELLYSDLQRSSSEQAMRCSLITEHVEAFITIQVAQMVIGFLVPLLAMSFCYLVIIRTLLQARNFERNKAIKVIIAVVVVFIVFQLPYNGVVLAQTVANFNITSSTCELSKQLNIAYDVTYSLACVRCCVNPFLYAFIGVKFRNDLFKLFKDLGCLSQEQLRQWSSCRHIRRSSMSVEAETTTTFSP
Briefly: Chemotaxis inhibition assay for receptor specificity, HEK293-CCR7. The conditions noted are these: 0.2, 1, 5, 25 μM, 30 min pretreatment. It is filed as cell-based. The procedure:
as §2

The target in assay [6] is T4, CCR3 (Homo sapiens, UniProt P51677).
T4 sequence (P51677 2-355 limits assumed): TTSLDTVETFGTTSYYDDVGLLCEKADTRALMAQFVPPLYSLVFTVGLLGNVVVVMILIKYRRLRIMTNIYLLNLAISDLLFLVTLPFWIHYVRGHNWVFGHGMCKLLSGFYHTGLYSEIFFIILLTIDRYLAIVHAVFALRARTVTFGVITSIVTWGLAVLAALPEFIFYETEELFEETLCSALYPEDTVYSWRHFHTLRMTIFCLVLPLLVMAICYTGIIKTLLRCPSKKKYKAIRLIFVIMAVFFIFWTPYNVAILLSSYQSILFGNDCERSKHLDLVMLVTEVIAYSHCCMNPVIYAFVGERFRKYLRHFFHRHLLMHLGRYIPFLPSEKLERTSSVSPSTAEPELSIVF
Description: Chemotaxis inhibition assay for receptor specificity, HEK293-CCR3. It is filed as cell-based. The conditions noted are these: 0.2, 1, 5, 25 μM, 30 min pretreatment. As to the method: as §2

For the compound `O=C(C1CCCCN1)N1CCN(c2nc(Cl)cc(NCc3ccc(Cl)cc3Cl)n2)CC1` (stereo not drawn) [compound 8a, {4-[4-Chloro-6-(2,4-dichloro-benzylamino)-pyrimidin-2-yl]-piperazin-1-yl}-piperidin-2-yl-methanone], the “chemotaxis effect of the compound on HEK293-CXCR1” value in assay [1] is given as “didn’t exert chemotaxis effects”. Also, the “inhibition of chemotaxis of HEK293-CXCR1 to its ligand” value in assay [2] is given as “few influence”. Further, the “expression of IL-4 in lungs (ELISA)” value in assay [3] is “notably decreased”. Further, the “chemotaxis effect of the compound on HEK293-CCR2B” value in assay [4] is “didn’t exert chemotaxis effects”. Besides, the “inhibition of chemotaxis of HEK293-CCR7 to its ligand” value in assay [5] is recorded as “few influence”. Further, the “inhibition of chemotaxis of HEK293-CCR3 to its ligand” value in assay [6] is “few influence”.
